Data taken from USRE48267E1, “Variants of C-type natriuretic peptide” (priority 2009, dated 2020).
Where a SMILES comes first, the peptide text is derived from it. Bridges are numbered along the chain shown (N, C = ends). The star is where a group is joined. MeO(CH2CH2O)23CH2CH2CO = COCCOCCOCCOCCOCCOCCOCCOCCOCCOCCOCCOCCOCCOCCOCCOCCOCCOCCOCCOCCOCCOCCOCCOCCC(=O)*

What was measured:
[1] = test system: cGMP; experiment: plasma cGMP concentration in rats; format: in vivo, rat
Description: Recombinant wild-type CNP22, CNP37 and PEO24-GANRR-CNP22 (K4R) (SEQ ID NO: 36) were evaluated.
Plasma cGMP concentrations in the sample at 5, 30, 60 and 90 minutes after i.v. dosing, or at 5, 30, 60, 120 and 180 minutes after s.c. dosing, were determined by the competitive RIA using anti-cGMP monoclonal antibody. Standard samples were prepared. 100 uL of the assay samples (standard solutions for the calibration curve or the diluted plasma samples for cGMP determination) were transferred to test tubes. Then 100 uL of anti-cGMP monoclonal antibody solution and 100 uL of ^125I-labeled succinyl cGMP tyrosine methyl ester solution were added to the tubes, respectively. All tubes were kept at 4° C. overnight. After the addition of 500 uL dextran charcoal solution, the tubes were vortexed and then placed on ice for 10 minutes. The reaction mixture was centrifuged and 500 uL of the supernatant was transferred from each sample to a new test tube. The amount of radiation (gamma line) in the supernatant was measured by a gamma-counter.

[2] = test system: FGFR3^ach mice; experiment: efficacy in mouse model of mild achondroplasia; format: in vivo; conditions: 200 nmol/kg s.c. once daily for 5 weeks
Source text: To assess the biodistribution of CNP37 in the bone growth plate in vivo and the in vivo effects of CNP37 on the growth plate (including total growth plate thickness, hypertrophic zone thickness, and cellularity of proliferating zone), bone samples were obtained from FGFR3^ach mice treated with vehicle or CNP37 as described above. For biodistribution and in vivo effects studies, tibias were fixed and stored in 70% ethanol. For immunohistochemistry, the samples were decalcified in 5% formic acid for 2 days, dehydrated and embedded in paraffin. Bones were sectioned at 5 um (microns), which were then deparaffinized, rehydrated, and used for CNP immunohistochemistry as described above. For cellular image analysis, bones were sectioned at 5 (microns), and then deparaffinized, rehydrated, and stained with Alcian Blue for 30 minutes (pH 2.5; MasterTech) and Hematoxylin &
Eosin for 30 seconds. Stained sections were visualized and photographed by brightfield microscopy. Thicknesses of the growth plate and the proliferating and hypertrophic zones were measured using ImageJ software.
The efficacy of CNP variants in enhancing growth and correcting achondroplasia was tested in a mouse model of mild achondroplasia, using a strain of transgenic mice expressing a human FGFR-3 gene having a G380R mutation (FGFR3^ach) (Wang et al., Proc. Natl. Acad. Sci. USA, 96(8): 4455-4460 (1999); Naski et al., Development USA, 125: 4977-4988 (1998); U.S. Pat. Nos. 6,265,632 and 6,136,040).
At 3 weeks of age, FGFR3^ach mice and their wild-type littermates were anesthetized to have lateral whole-body X-ray images taken by Faxitron, and randomized by body weight into the following treatment groups (n=8/group): (1) wild-type/vehicle, (2) FGFR3^ach/vehicle, (3) FGFR3^ach/CNP37, and (4) FGFR3^ach/PEO24-GANRR-CNP22(K4R) (SEQ ID NO: 36). The mice received once daily subcutaneous (s.c.) administration of designated test article (vehicle or 200 nmol/kg CNP variant) for 5 weeks. Satellite groups (n=3) were used to confirm exposure of each test article following a single subcutaneous administration on Day 1. Wild-type male FVB mice that received daily s.c. injection of vehicle for 5 weeks were used as a control for normal growth.
X-ray measurements at baseline and at the end of the study were performed to determine change in the head length, area of the skull, and the external auditory meatus (EAM, the ear canal running from the outer ear to the middle ear). Body weight and tail length were measured at least once weekly, using a digital caliper to measure tail length, and body (nasoanal) length was measured after 5 weeks of treatment. Bone (tibia, femur, ulna and humerus) lengths were measured using a digital caliper at necropsy.
On Day 37, all mice were sacrificed by terminal anesthesia and whole-animal photographs and X-ray images by Faxitron were taken. Left and right tibia, femur, humerus, and ulna were collected and measured using a digital caliper. The left portions of each bone were processed for histology, and the right portions were snap-frozen for archival. Samples obtained from the bones were used to evaluate the effects of NP variants on endochondral bone growth.

With `CC[C@H](C)[C@@H]1NC(=O)[C@H](CCCNC(=N)N)NC(=O)[C@H](CC(=O)O)NC(=O)[C@H](CC(C)C)NC(=O)[C@H](CCCCN)NC(=O)[C@H](CC(C)C)NC(=O)CNC(=O)[C@H](Cc2ccccc2)NC(=O)[C@@H](NC(=O)CNC(=O)[C@H](CCCNC(=N)N)NC(=O)[C@H](CO)NC(=O)[C@H](CC(C)C)NC(=O)CNC(=O)[C@H](CCCNC(=N)N)NC(=O)[C@H](CCCNC(=N)N)NC(=O)[C@H](CC(N)=O)NC(=O)[C@H](C)NC(=O)CNC(=O)CCOCCOCCOCCOCCOCCOCCOCCOCCOCCOCCOCCOCCOCCOCCOCCOCCOCCOCCOCCOCCOCCOCCOCCOC)CSSC[C@@H](C(=O)O)NC(=O)CNC(=O)[C@H](CC(C)C)NC(=O)CNC(=O)[C@H](CO)NC(=O)[C@H](CCSC)NC(=O)[C@H](CO)NC(=O)CNC1=O` [PEO24-GANRR-CNP22(K4R)] ({MeO(CH2CH2O)23CH2CH2CO}-GANRRGLSRGCFGLKLDRIGSMSGLGC-OH; disulfide 11-27) the “plasma levels of cGMP compared with CNP22” value ([1]; i.v. 20 nmol/kg, at 30, 60 and 90 minutes) was “much higher plasma levels of cGMP”, the “plasma concentrations of cGMP compared with CNP22” value ([1]; s.c. 50 nmol/kg) was “substantially higher plasma concentrations of cGMP” and the “Femur length, relative to vehicle-treated FGFR3^ach mice = 100%” value [2] was 100%. For the same compound, the “Humerus length, relative to vehicle-treated FGFR3^ach mice = 100%” value [2] was 100%, the “Naso-Anal length, relative to vehicle-treated FGFR3^ach mice = 100%” value [2] was 99% and the “Tail length, relative to vehicle-treated FGFR3^ach mice = 100%” value [2] was 100%. For the same compound, the “Tibia length, relative to vehicle-treated FGFR3^ach mice = 100%” value [2] was 102% and the “Ulna length, relative to vehicle-treated FGFR3^ach mice = 100%” value [2] was 101%.
